test system: RAW264.7; experiment: Anti-inflammatory activity in mouse RAW264.7 cells assessed as inhibition of LPS-induced NO production by Griess assay; assay type: functional, cell-based

Row | IC50 [µM] | Structure (SMILES)
1 | 24.2 | CC(=O)OC[C@]12[C@H](OC(C)=O)[C@@H](OC(C)=O)[C@@H]3[C@@H](O)[C@]1(OC3(C)C)[C@@](C)(O)C[C@H](OC(C)=O)[C@@H]2OC(=O)/C=C/c1ccccc1
2 | 31 | CC(=O)OC[C@]12[C@H](OC(C)=O)[C@@H](OC(C)=O)[C@@H]3[C@@H](O)[C@]1(OC3(C)C)[C@@](C)(O)C[C@H](OC(C)=O)[C@@H]2OC(=O)/C=C\c1ccccc1
3 | > 100 | CC(=O)OC[C@]12[C@H](OC(C)=O)[C@@H](OC(C)=O)[C@@H]3C[C@]1(OC3(C)C)[C@H](C)C[C@H](OC(C)=O)[C@@H]2OC(=O)/C=C/c1ccccc1
4 | > 100 | CC(=O)OC[C@]12[C@H](OC(C)=O)[C@@H](OC(C)=O)[C@@H]3C[C@]1(OC3(C)C)[C@@](C)(O)C[C@H](OC(C)=O)[C@@H]2OC(=O)/C=C/c1ccccc1
5 | > 100 | CC(=O)OC[C@]12[C@H](OC(C)=O)[C@@H](OC(C)=O)[C@@H]3C[C@]1(OC3(C)C)[C@H](C)C[C@H](OC(C)=O)[C@@H]2OC(=O)/C=C\c1ccccc1
6 | 19.1 | CC(=O)OC[C@]12[C@H](OC(C)=O)[C@@H](OC(C)=O)[C@@H]3C[C@]1(OC3(C)C)[C@@](C)(O)C[C@H](OC(C)=O)[C@@H]2OC(=O)/C=C\c1ccccc1

The next lines start with the compound.

Row | Structure (SMILES) | IC50 [µM]
7 | C[C@]12CCC(=O)C=C1CC[C@@H]1[C@@H]2[C@@H](O)C[C@@]2(C)[C@H]1CC[C@]2(O)C(=O)COC(=O)CCC(=O)O [HYDROCORTISONE SODIUM SUCCINATE] | 42.4
8 | CC(=O)OC[C@]12[C@H](OC(C)=O)[C@@H](OC(C)=O)[C@@H]3[C@@H](OC(C)=O)[C@]1(OC3(C)C)[C@@](C)(O)C[C@H](OC(C)=O)[C@@H]2OC(=O)/C=C\c1ccccc1 | > 100
9 | CC(=O)OC[C@]12[C@H](OC(C)=O)[C@@H](OC(C)=O)[C@@H]3[C@@H](O)[C@]1(OC3(C)C)[C@H](C)[C@@H](O)[C@H](OC(C)=O)[C@@H]2OC(=O)/C=C/c1ccccc1 | > 100
10 | CC(=O)OC[C@]12[C@H](OC(C)=O)C(=O)[C@@H]3[C@@H](O)[C@]1(OC3(C)C)[C@@](C)(O)C[C@H](OC(C)=O)[C@@H]2OC(=O)/C=C/c1ccccc1 | > 100
11 | CC(=O)OC[C@]12[C@H](OC(C)=O)C(=O)[C@@H]3C[C@]1(OC3(C)C)[C@@](C)(O)C[C@H](OC(C)=O)[C@@H]2OC(=O)/C=C/c1ccccc1 | > 100
12 | CC(=O)O[C@H]1C[C@@H](C)[C@]23OC(C)(C)[C@H]([C@H](O)[C@@H](OC(=O)c4ccccc4)[C@]2(CO)[C@H]1OC(=O)/C=C/c1ccccc1)[C@H]3OC(C)=O | > 100
13 | CC(=O)OC[C@]12[C@H](OC(C)=O)[C@@H](OC(C)=O)[C@@H]3[C@@H](O)[C@]1(OC3(C)C)[C@@](C)(O)[C@@H](O)[C@H](OC(C)=O)[C@@H]2OC(=O)/C=C/c1ccccc1 | 53.7
14 | CC(=O)OC[C@]12[C@H](OC(C)=O)[C@@H](O)[C@@H]3[C@@H](O)[C@]1(OC3(C)C)[C@@](C)(O)C[C@H](O)[C@@H]2OC(=O)/C=C/c1ccccc1 | > 100
15 | CC(=O)OC[C@]12[C@H](OC(C)=O)[C@@H](OC(C)=O)[C@@H]3[C@@H](O)[C@]1(OC3(C)C)[C@H](C)C[C@H](OC(C)=O)[C@@H]2OC(=O)/C=C\c1ccccc1 | 28.2
16 | CC(=O)OC[C@]12[C@H](OC(C)=O)[C@@H](OC(C)=O)[C@@H]3[C@@H](O)[C@]1(OC3(C)C)[C@H](C)C[C@H](OC(C)=O)[C@@H]2OC(=O)/C=C/c1ccccc1 | 11.9
